PMC9664868, “Dephospho-Coenzyme A Kinase Is an Exploitable Drug Target against Plasmodium falciparum: Identification of Selective Inhibitors by High-Throughput Screening of a Large Chemical Compound Library” (Antimicrobial Agents and Chemotherapy, 2022)
Where two headings read alike, the source gives them in different places.

What was measured:
[1] = tested on: P. falciparum drug-sensitive 3D7 strain; assay: Erythrocytic-stage parasite growth inhibition, diaphorase-coupled LDH assay, 3D7; type: cell-based, Plasmodium falciparum; conditions: for Selectivity index IC50 (HepG2/3D7): HepG2 IC50 / 3D7 IC50
Experimental: (§1) Selected hit compounds were also tested against erythrocytic-stage parasites of P. falciparum drug-sensitive 3D7 and drug-resistant Dd2 strains ([39]). For the phenotypic assay, parasite cultures were synchronized with 5% (wt/vol) D-sorbitol as previously described ([40]). A synchronized culture containing ring-stage parasites of 0.3% parasitemia was initiated with a culture volume of 25 μL/well on a 384-well plate. A series of diluted compounds (at final concentrations of 50, 10, 2, 0.4, and 0.08 μM) were used to calculate IC50 values. Mefloquine at 50 μM and atovaquone at 20 μM were used as no-growth control (100% inhibition). After 72 h of incubation, parasite growth was measured by diaphorase-coupled lactate dehydrogenase (LDH) assay as previously described ([41]). Absorbance at 650 nm was measured using SpectraMax Paradigm multimode microplate reader (Molecular Devices, San Jose, CA, USA). The IC50 values were calculated as described above.

[2] = tested on: P. falciparum drug-resistant Dd2 strain; assay: Erythrocytic-stage parasite growth inhibition, diaphorase-coupled LDH assay, Dd2; type: cell-based, Plasmodium falciparum
Experimental: as §1

HepG2 cell line = assay: Cytotoxicity assay (Cell Counting Kit-8); type: cell-based, human
Experimental: Cytotoxicity against human cells was evaluated using the human liver carcinoma HepG2 cell line. HepG2 cells were cultured in D-MED supplemented with 4 mM L-glutamine and 10% fetal bovine serum (FBS) in a 75-cm^2 flask (Violamo) at 37°C. For the cytotoxicity assay, HepG2 cells in semiconfluent state were detached from the flask by incubating the cells with 5 mL D-MEM containing 0.25% trypsin-EDTA. After detachment, HepG2 cells were resuspended in D-MEM-supplemented L-glutamine and FBS, and cell viability was evaluated by incubating cells with 0.4% Trypan blue on a hemocytometer. An approximately 50-μL suspension containing 3,000 cells was dispensed into each well on a 384-well clear-bottom plate using a Multidrop Combi dispenser. Compounds dissolved in DMSO had been dispensed into wells to yield final concentrations of 100, 20, 4, 0.8, and 0.2 μM before cells were added. After cells were added to the plates, they were cultured at 37°C under 5% CO2. After 48 h cultivation, 5 μL of Cell Counting Kit-8 (Dojindo, Japan) was added, and the plates were further incubated for 2 h to assess cell growth and survival.

PfDPCK = PfDPCK (Plasmodium falciparum, UniProt Q8IL34); assay: PfDPCK inhibition, enzyme-coupled fluorescence ADP detection assay (HTS and IC50 determination); type: biochemical
Chain of PfDPCK (Q8IL34 entry or part of it): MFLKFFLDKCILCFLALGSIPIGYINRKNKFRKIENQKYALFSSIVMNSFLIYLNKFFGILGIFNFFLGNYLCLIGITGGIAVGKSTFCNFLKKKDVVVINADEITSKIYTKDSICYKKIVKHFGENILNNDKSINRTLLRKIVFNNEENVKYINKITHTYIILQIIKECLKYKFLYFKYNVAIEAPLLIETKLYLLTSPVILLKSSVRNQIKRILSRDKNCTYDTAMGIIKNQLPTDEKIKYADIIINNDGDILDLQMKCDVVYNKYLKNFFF
Experimental: High-throughput screening against recombinant PfDPCK was performed using the Drug Discovery Initiative (DDI) full library, available from The University of Tokyo, composed of approximately 210,000 compounds. The primary assay was performed on 1,536-well white plate format with a final volume of 2 μL/well, containing 10 μM test compounds using a Multidrop Combi reagent dispenser (Thermo Fisher Scientific, Waltham, MA). The reaction was conducted in the assay buffer described above with 100 μM ATP and 50 μM dephospho-CoA. The assay was carried out at room temperature for 4 h in a closed plastic container with wet tissues. The reaction was stopped, and produced ADP was quantified using an enzyme-coupled fluorescence ADP detection assay, using PHERAstar microplate reader (BMG Labtech, Offenburg, Germany) with excitation at 540 nm and emission at 590 nm, as previously described ([17]). The inhibition level was calculated as the percentage inhibition of DPCK activity with each compound compared to the activity with only dimethyl sulfoxide (DMSO) as control (no inhibition) and that with no enzyme as 100% inhibition. IC50 values of the hit compounds were determined under the same assay conditions for the screening: Z′ factor, signal-to-background ratio (S/B), signal-to-noise ratio (S/N), and coefficient of variation (CV) were calculated to estimate the quality of screening system as previously described ([18], [38]).
The primary hits were reassayed in quadruplicate (n = 4) as in the primary screening. We next tested the confirmed secondary hits to exclude false positives that inhibit coupled fluorescence assay, but not PfDPCK. After exclusion of false positives, all tertiary hits were tested against human HsCOASY in the counterassay to exclude compounds that inhibit both PfDPCK and HsCOASY. The compounds showing >10% inhibition against HsCOASY were excluded from further studies. The IC50 values of the hit compounds were determined under the same assay conditions described as above for the primary screening, with the serially diluted compounds at 20, 10, 2.5, 0.5, and 0.1 μM at final concentrations. The assay was conducted in quadruplicate for each dilution, and IC50 values were calculated using GraphPad Software (San Diego, California USA).

[3] = Homo sapiens, HepG2, 48 h, means ± SEMs, read-out: IC50 (μM) of: HepG2
[4] = Plasmodium falciparum, drug-sensitive 3D7, 72 h, means ± SEMs, read-out: IC50 (μM) of: Pf cell 3D7
[5] = Plasmodium falciparum, drug-resistant Dd2, 72 h, means ± SEMs, read-out: IC50 (μM) of: Pf cell Dd2
[6] = recombinant enzyme, means ± SEMs, read-out: IC50 (μM) of: PfDPCK
[7] = Homo sapiens, HepG2, ND (maximum concentration tested 100 μM), read-out: IC50 (μM) of: HepG2
[8] = Plasmodium falciparum, 3D7, Table S1, means ± SEM, read-out: IC50 (μM) Pf cell 3D7
[9] = Plasmodium falciparum, DD2, Table S1, means ± SEM, read-out: IC50 (μM) Pf cell Dd2
[10] = Table 2, PfDPCK inhibitor scaffolds Gr4, Gr5, Gr8, read-out: IC50
[11] = Homo sapiens, HepG2, Table S1, means ± SEM, read-out: IC50 (μM) HepG2
[12] = Plasmodium falciparum, 3D7, 72 h, read-out: IC50 (μM) of: Pf cell 3D7
[13] = Plasmodium falciparum, DD2, 72 h, read-out: IC50 (μM) of: Pf cell Dd2
[14] = Homo sapiens, HepG2, read-out: IC50 (μM) of: HepG2

SMILES | Selectivity index IC50 (HepG2/3D7) [1] | Selectivity index IC50 (HepG2/Dd2) [2] | IC50 (HepG2 cell line; [3]) [µM] | IC50 [1, 4] [nM] | IC50 [2, 5] [nM] | IC50 (PfDPCK; [6]) [µM] | further results
O=C1C(O)=C([C@H]2CC[C@H](c3ccc(Cl)cc3)CC2)C(=O)c2ccccc21 [Atovaquone, reference compound] | 363,181 | 499,375 | 79.9 ± 1.79 | – | – | – | IC50 ([1]; Plasmodium falciparum, drug-sensitive 3D7, value in nM, read-out: IC50 of: Pf cell 3D7): 0.22 ± 0.03 nM; IC50 ([2]; Plasmodium falciparum, drug-resistant Dd2, value in nM, read-out: IC50 of: Pf cell Dd2): 0.16 ± 0.028 nM
CNc1nc(NC(C)(C)C)nc(NC(C)(C)C)n1 [Compound A-2] | >23 | >102 | > 100 | 4430 ± 40 | 980 ± 500 | 0.4 ± 0.07 | –
CCCn1c(C)cc(-c2csc(NC(=O)C3CC3)n2)c1C [Compound A-4] | – | – | – | 4450 ± 50 | 1590 ± 230 | 0.52 ± 0.09 | IC50 (HepG2 cell line; [7]): > 100 µM
CCNC(=N)SCc1c(C)c(C)c(C)c(C)c1C [Compound A-7] | 8.2 | 69.5 | 9.04 ± 0.01 | 1100 ± 110 | 130 ± 10 | 1.09 ± 0.03 | –
Nc1nc(Nc2cccc(F)c2)nc2ccccc12 [Compound A-13] | – | – | – | 1300 ± 60 | 3400 ± 350 | 1.69 ± 0.05 | IC50 (HepG2 cell line; [7]): > 100 µM
Cc1ccc(S(=O)(=O)Nc2cc(Cl)c(O)c3ccccc23)c(C)c1 [Compound A-16] | 17.9 | 171.7 | 39.6 ± 2.3 | 2210 ± 70 | 230 ± 10 | 2.09 ± 0.04 | –
CCOc1ccc(-n2cc(-c3ccccc3)c3c(NCCN(C)C)ncnc32)cc1 [Compound A-17] | – | – | – | – | – | – | IC50 [1, 8]: 22900 ± 1870 nM; IC50 [2, 9]: 2700 ± 440 nM; IC50 (PfDPCK; [10]): 2.15 ± 0.07 µM; IC50 (HepG2 cell line; [11]): 8.45 ± 0.35 µM
Cc1cc(-c2csc(NC3CC3)n2)c(C)n1CCC1=CCCCC1 [Compound A-19] | 22.4 | 30.8 | 81.5 | 3640 ± 40 | 2650 ± 130 | 2.55 ± 0.03 | –
CCOC(=O)C1NC(c2ccc[n+](C)c2)C23c4c5c6c7c8c9c(c%10c%11c2c2c4c4c%12c5c5c6c6c8c8c%13c9c9c%10c%10c%11c%11c2c2c4c4c%12c%12c5c5c6c8c6c8c%13c9c9c%10c%10c%11c2c2c4c4c%12c5c6c5c8c9c%10c2c45)C713 (centres unmarked) [Compound A-22] | – | – | – | – | – | – | IC50 [1, 12]: 30600 ± 1500 nM; IC50 [2, 13]: 6320 ± 350 nM; IC50 (PfDPCK): 3.25 ± 0.02 µM; IC50 (HepG2 cell line; [14]): > 100 µM
CCOC(=O)CN1C(C(=O)OCC)C23c4c5c6c7c8c9c(c%10c%11c2c2c4c4c%12c5c5c6c6c8c8c%13c9c9c%10c%10c%11c%11c2c2c4c4c%12c%12c5c5c6c8c6c8c%13c9c9c%10c%10c%11c2c2c4c4c%12c5c6c5c8c9c%10c2c45)C73C1c1cc[n+](C)cc1 (centres unmarked) [Compound A-23] | – | – | – | – | – | – | IC50 ([1]; drug-sensitive 3D7, 72 h, means ± SEMs, read-out: IC50 (μM) of: Pf cell 3D7): 4470 ± 120 nM; IC50 ([2]; drug-resistant Dd2, 72 h, means ± SEMs, read-out: IC50 (μM) of: Pf cell Dd2): 7420 ± 460 nM; IC50 (PfDPCK): 3.31 ± 0.02 µM; IC50 (HepG2 cell line; ND (maximum concentration tested 100 μM), read-out: IC50 (μM) of: HepG2): > 100 µM
Cc1cc(Nc2cc3ccccc3cc2O)n2ncnc2n1 [Compound A-25] | – | – | – | 1640 ± 30 | > 50000 | 3.45 ± 0.07 | IC50 (HepG2 cell line; [7]): > 100 µM
Cc1ccc(-c2nnc(Nc3ccc(O)cc3)c3ccccc23)cc1S(=O)(=O)NCCO [Compound A-26] | – | – | – | 14450 ± 80 | 3410 ± 1220 | 3.5 ± 0.04 | IC50 (HepG2 cell line; [7]): > 100 µM
CCN(CC)CCn1c(=N)n(CC(=O)c2cc(C(C)(C)C)c(O)c(C(C)(C)C)c2)c2ccccc21 [Compound A-30] | 45.1 | 43.5 | 3.75 ± 3.55 | 80 ± 10 | 90 ± 60 | 3.83 ± 0.03 | –
CC1(C)NC(C(=O)O)C23c4c5c6c7c8c9c(c%10c%11c2c2c4c4c%12c5c5c6c6c8c8c%13c9c9c%10c%10c%11c%11c2c2c4c4c%12c%12c5c5c6c8c6c8c%13c9c9c%10c%10c%11c2c2c4c4c%12c5c6c5c8c9c%10c2c45)C713 (centres unmarked) [Compound A-31] | – | – | – | – | – | – | IC50 [1, 12]: > 50000 nM; IC50 [2, 13]: 670 ± 20 nM; IC50 (PfDPCK): 3.83 ± 0.04 µM; IC50 (HepG2 cell line; [14]): > 100 µM
COc1ccc(NC(C)=O)cc1/N=C/c1cc(Br)cc(Br)c1O [Compound A-38] | >3.4 | >142.8 | > 100 | 29060 ± 200 | 700 ± 100 | 4.87 ± 0.05 | –
Cc1cccc(-n2cc(-c3ccccc3)c3c(NCCOCCO)ncnc32)c1 [Compound A-42] | – | – | – | – | – | – | IC50 [1, 8]: 38200 ± 2910 nM; IC50 [2, 9]: 49700 ± 3220 nM; IC50 (PfDPCK; [10]): 6.14 ± 0.28 µM; IC50 (HepG2 cell line; [11]): 63.2 ± 3.48 µM
Cc1cc(-c2csc(N3CCCC3)n2)c(C)n1-c1c(C)n(C)n(-c2ccccc2)c1=O [Compound A-44] | – | – | – | 3960 ± 40 | 1750 ± 50 | 6.33 ± 0.11 | IC50 (HepG2 cell line; [7]): > 100 µM
Cc1cc(-c2csc(-c3ccsc3)n2)c(C)n1CCCCCC(=O)O [Compound A-96] | – | – | – | – | – | – | IC50 [1, 8]: 31000 ± 2100 nM; IC50 [2, 9]: 27700 ± 2600 nM; IC50 (PfDPCK; [10]): 14.7 ± 0.28 µM
OC(c1cc(C(F)(F)F)nc2c(C(F)(F)F)cccc12)C1CCCCN1 (centres unmarked) [Mefloquine, reference compound] | 133 | 8.8 | 1.73 ± 0.7 | 13 ± 6 | 190 ± 70 | – | –
